Measured values from US20230085307A1, “PYRIDAZINONE COMPOUND AND HERBICIDE” (NISSAN CHEMICAL CORPORATION, priority 2019, published 2023).

Legend:
[1] = test system: wheat; assay: Test Example 4: effect on crop by soil treatment (Table 19, symbol e); format: in vivo
Summary of the method: (§1)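 Scoring uses the grading scale of an earlier test, three weeks post-application. Treatment consists of spraying a diluted emulsion formulation across the surface of sterilized diluvial soil in which seeds are buried near 1.5 cm deep; boxes are kept in a greenhouse between 25° C. and 30° C.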

[2] = test system: beet; assay: Test Example 5: effect on crop by foliage application, plastic box (Table 20, symbol f); format: in vivo; conditions: three weeks after application
Summary of the method: (§2)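 Post-emergence foliar test in sterilized diluvial soil. Compound applied as water-diluted emulsion at a predetermined rate to 14-day-old plants; evaluation at three weeks.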

[3] = test system: corn; assay: Test Example 5: effect on crop by foliage application, plastic box (Table 20, symbol c); format: in vivo; conditions: three weeks after application
Summary of the method: as §2

[4] = test system: soybean; assay: Test Example 5: effect on crop by foliage application, plastic box (Table 20, symbol d); format: in vivo; conditions: three weeks after application
Summary of the method: as §2

[5] = test system: beet; assay: Test Example 4: effect on crop by soil treatment (Table 19, symbol f); format: in vivo
Summary of the method: as §1

[6] = test system: wheat; assay: Test Example 5: effect on crop by foliage application, plastic box (Table 20, symbol e); format: in vivo; conditions: three weeks after application
Summary of the method: as §2

[7] = test system: transplanted rice; assay: Test Example 1: effect on crop, application before weed generation under submerged conditions (Table 16, symbol a); format: in vivo
From the text: [Test Example 1] Herbicidal Activity Test by Application before Weed Generation under Submerged Conditions After alluvial soil was placed into 1/10000 are of Wagner pot, water was poured and mixed to form a submerged condition having a water depth of 4 cm. Seeds of late watergrass, Japanese bulrush, and oval-leafed pondweed were sowed in a mixed manner in the aforementioned pot, and then 2.5 leaf stage rice plant seedlings were transplanted thereto. On the day of sowing seeds, the emulsion agent of the compound of the present invention prepared according to Formulation Example 2 was diluted with water so as to achieve a predetermined herbicide amount, and the diluted emulsion agent was applied to the surface of the water. The pot was placed in a greenhouse at 25° C. to 30° C. for growth of the plants. Three weeks after the herbicide application, the effect of the herbicide on each plant was evaluated according to the following criteria. Evaluation Criteria 5: Herbicidal rate of 90% or more (almost completely withered) 4: Herbicidal rate of 70% or more and less than 90% 3: Herbicidal rate of 40% or more and less than 70% 2: Herbicidal rate of 20% or more and less than 40% 1: Herbicidal rate of 5% or more and less than 20% 0: Herbicidal rate of 5% or less (almost no effect)

[8] = amount of applied herbicide 214 g/ha
[9] = amount of applied herbicide 320 g/ha

melting point | SMILES | e: wheat, effect on crop grade [1, 8] | f: beet, effect on crop grade ([2]; 214 g/ha) | c: corn, effect on crop grade ([3]; 214 g/ha) | d: soybean, effect on crop grade ([4]; 214 g/ha) | f: beet, effect on crop grade [5, 8] | e: wheat, effect on crop grade ([6]; 214 g/ha) | Effect on crop, a: transplanted rice [7, 8] | e: wheat, effect on crop grade [1, 9] | f: beet, effect on crop grade ([2]; 320 g/ha) | c: corn, effect on crop grade ([3]; 320 g/ha) | d: soybean, effect on crop grade ([4]; 320 g/ha) | f: beet, effect on crop grade [5, 9] | e: wheat, effect on crop grade ([6]; 320 g/ha) | Effect on crop, a: transplanted rice [7, 9]
243 to 244 °C | COc1ccc2c(-c3c(O)c(C)nn(C)c3=O)c(-c3ccccc3OC)sc2c1 [Compound No. 3-065, 5-hydroxy-4-(6-methoxy-2-(2-methoxyphenyl)benzo[b]thiophen-3-yl)-2,6-dimethylpyridazin-3(2H)-one] | 0 (Herbicidal rate of 5% or less (almost no effect)) | 5 (Herbicidal rate of 90% or more (almost completely withered)) | 0 (Herbicidal rate of 5% or less (almost no effect)) | 5 (Herbicidal rate of 90% or more (almost completely withered)) | 3 (Herbicidal rate of 40% or more and less than 70%) | 2 (Herbicidal rate of 20% or more and less than 40%) | 0 (Herbicidal rate of 5% or less (almost no effect)) |  |  |  |  |  |  | 
209 to 211 °C | COc1ccc2c(-c3c(O)c(Cl)nn(C)c3=O)c(-c3ccccc3OC)sc2c1 [Compound No. 3-088, 6-chloro-5-hydroxy-4-(6-methoxy-2-(2-methoxyphenyl)benzo[b]thiophen-3-yl)-2-methylpyridazin-3(2H)-one] |  |  |  |  |  |  |  | 0 (Herbicidal rate of 5% or less (almost no effect)) | 5 (Herbicidal rate of 90% or more (almost completely withered)) | 0 (Herbicidal rate of 5% or less (almost no effect)) | 3 (Herbicidal rate of 40% or more and less than 70%) | 3 (Herbicidal rate of 40% or more and less than 70%) | 0 (Herbicidal rate of 5% or less (almost no effect)) | 0 (Herbicidal rate of 5% or less (almost no effect))
216 to 218 °C | COc1ccccc1-c1sc2cc(OCC(F)(F)F)ccc2c1-c1c(O)c(C)nn(C)c1=O [Compound No. 3-116, 5-hydroxy-4-(2-(2-methoxyphenyl)-6-(2,2,2-trifluoroethoxy)benzo[b]thiophen-3-yl)-2,6-di methylpyridazin-3 (2H)-one] |  |  |  |  |  |  |  | 1 (Herbicidal rate of 5% or more and less than 20%) | 5 (Herbicidal rate of 90% or more (almost completely withered)) | 0 (Herbicidal rate of 5% or less (almost no effect)) | 5 (Herbicidal rate of 90% or more (almost completely withered)) | 5 (Herbicidal rate of 90% or more (almost completely withered)) | 3 (Herbicidal rate of 40% or more and less than 70%) | 4 (Herbicidal rate of 70% or more and less than 90%)
